Assays:
participants [1] = experiment: Anxiety by Visual Analog Scale; type: in vivo, human; parameters: Anxiety (Visual Analog Scale) / Anxiety (VAS) MEAN (30-180) / Anxiety (VAS) Δ vs. CA: scale not given here
Description: All supplements were orally ingested with 8 fluid ounces of cold tap water. Anxiety was measured by Visual Analog Scale (VAS) at baseline, 30, 60, 90, 120 and 180 minutes after ingestion.

participants [2] = experiment: Resting energy expenditure, placebo-controlled crossover; type: in vivo, human
Description: Two participants were assigned in a randomized, double-blind, placebo-controlled, crossover fashion to ingest a non-energetic placebo (maltodextrin) or a 200 mg dose of 1-methylxanthine (1-MX). All supplements were orally ingested with 8 fluid ounces of cold tap water. Resting Energy Expenditure was measured at baseline, 30, 60, 90, 120 and 180 minutes after ingestion.

catalase = experiment: Catalase level in young and old rats; type: in vivo
Description: Twenty-four young (6-8 Week) and twenty-four old (14-16 Months) Swiss Albino Wistar rats were housed in an animal room at a constant temperature (22±3° C.) and humidity (30%-70%) under a 12:12 h light-dark cycle with standard laboratory diet (Purina 5L79, Rat and Mouse 18% protein; PMI Nutrition International, Brentwood, MO, USA). Distilled water was provided ad libitum. All animal experiments were reviewed and approved by the Institutional Animal Ethical Committee (IAEC) of Radiant Research Services Pvt. Ltd (Bangalore, India). All research was conducted in accordance with the guidelines of the committee for the purpose of control and supervision of experiments on animals.
After one week of acclimation, the animals were randomly divided by body weight and age into six groups (n=8 per group in each test) for oral treatment once a day, at approximately same time each day (±1 hour), for 10 consecutive days: (1) vehicle control or (2) 1-methylxanthine or (3) 1-methylxanthine plus paraxanthine. The dose administered to the rat was calculated using US Food and Drug Administration for human equivalence doses (HED), assuming a human weight of 60 kg. […] Food intake was monitored daily while water intake was ad libitum. […] Body weight was recorded weekly. […]

[3] = Person one, time 0, 200 mg oral
[4] = Person two, time 0, 200 mg oral

Q: For `Cn1c(=O)[nH]c2nc[nH]c2c1=O` [1-methylxanthine, 1-Methyl-3H-purine-2,6-dione], which “lower feelings of anxiety in comparison to CA” value (participants [1]; 200 mg oral) is on record?
A: 21%

Q: What about the “Anxiety (VAS) MEAN (30-180)” value (participants [1]; Average) of the same compound?
A: 58.8

Q: And the “Anxiety (VAS) Mean Δ from 0” value (participants [1]; Average)?
A: +1.3

Q: What about the “Anxiety (VAS) MEAN (30-180)” value (participants [1]; Person one) of the same compound?
A: 48.6

Q: And the “Anxiety (VAS) Mean Δ from 0” value (participants [1]; Person one)?
A: −1.4

Q: What about the “Anxiety (VAS) Δ vs. CA” value (participants [1]; Person one) of the same compound?
A: −26.0

Q: And the “Anxiety (Visual Analog Scale)” value (participants [1]; Person one, 30 min)?
A: 51

Q: And the “Anxiety (Visual Analog Scale)” value (participants [1]; Person one, 60 min)?
A: 40

Q: And the “Anxiety (Visual Analog Scale)” value (participants [1]; Person one, 90 min)?
A: 40

Q: What about the “Anxiety (Visual Analog Scale)” value (participants [1]; Person one, 120 min) of the same compound?
A: 51

Q: And the “Anxiety (Visual Analog Scale)” value (participants [1]; Person one, 180 min)?
A: 61

Q: And the “Anxiety (Visual Analog Scale)” value (participants [1]; [3])?
A: 50

Q: And the “Anxiety (VAS) MEAN (30-180)” value (participants [1]; Person two)?
A: 69.0

Q: And the “Anxiety (VAS) Mean Δ from 0” value (participants [1]; Person two)?
A: +4.0

Q: What about the “Anxiety (VAS) Δ vs. CA” value (participants [1]; Person two) of the same compound?
A: −5.2

Q: And the “Anxiety (Visual Analog Scale)” value (participants [1]; Person two, 30 min)?
A: 65

Q: What about the “Anxiety (Visual Analog Scale)” value (participants [1]; Person two, 60 min) of the same compound?
A: 65

Q: And the “Anxiety (Visual Analog Scale)” value (participants [1]; Person two, 90 min)?
A: 65

Q: What about the “Anxiety (Visual Analog Scale)” value (participants [1]; Person two, 120 min) of the same compound?
A: 75

Q: What about the “Anxiety (Visual Analog Scale)” value (participants [1]; Person two, 180 min) of the same compound?
A: 75

Q: What about the “Anxiety (Visual Analog Scale)” value (participants [1]; [4]) of the same compound?
A: 65

Q: What about the “Resting Energy Expenditure MEAN” value (participants [2]; Average) of the same compound?
A: 1,897 kcals/day

Q: What about the “Resting Energy Expenditure MEAN” value (participants [2]; Person one) of the same compound?
A: 2,006 kcals/day

Q: What about the “Resting Energy Expenditure” value (participants [2]; Person one, 30 min) of the same compound?
A: 2050 kcals/day

Q: What about the “Resting Energy Expenditure” value (participants [2]; Person one, 60 min) of the same compound?
A: 1975 kcals/day

Q: What about the “Resting Energy Expenditure” value (participants [2]; Person one, 90 min) of the same compound?
A: 1988 kcals/day

Q: And the “Resting Energy Expenditure” value (participants [2]; Person one, 120 min)?
A: 1964 kcals/day

Q: And the “Resting Energy Expenditure” value (participants [2]; Person one, 180 min)?
A: 2053 kcals/day

Q: And the “Resting Energy Expenditure” value (participants [2]; [3])?
A: 2017 kcals/day

Q: What about the “Resting Energy Expenditure MEAN” value (participants [2]; Person two) of the same compound?
A: 1,788 kcals/day

Q: What about the “Resting Energy Expenditure” value (participants [2]; Person two, 30 min) of the same compound?
A: 1789 kcals/day

Q: And the “Resting Energy Expenditure” value (participants [2]; Person two, 60 min)?
A: 1790 kcals/day

Q: And the “Resting Energy Expenditure” value (participants [2]; Person two, 90 min)?
A: 1777 kcals/day

Q: What about the “Resting Energy Expenditure” value (participants [2]; Person two, 120 min) of the same compound?
A: 1912 kcals/day

Q: What about the “Resting Energy Expenditure” value (participants [2]; Person two, 180 min) of the same compound?
A: 1670 kcals/day

Q: What about the “Resting Energy Expenditure” value (participants [2]; [4]) of the same compound?
A: 1769 kcals/day

Q: And the catalase levels (catalase; old rats)?
A: 32.78±1.26 U/mL

Q: What about the catalase levels (catalase; young rats) of the same compound?
A: 33.32±1.68 U/mL
